The values below are quoted from earlier work in paper PMC8035703, “Effect of Synchronous Versus Sequential Regimens on the Pharmacokinetics and Biodistribution of Regorafenib with Irradiation” (Pharmaceutics, 2021).

Details of the data set: method as in PMID 26867886, PMID 28202227, PMID 24971021. The note with it: HCC patients who received RT concurrently or sequentially with sorafenib; cited from earlier work.

`CNC(=O)c1cc(Oc2ccc(NC(=O)Nc3ccc(Cl)c(C(F)(F)F)c3)cc2)ccn1` [sorafenib]: the “Incidence of adverse effects” value is greater than 30%.
